Earlier results as cited in patent US20220168251A1, “PROCESS FOR PRODUCTION OF A NANO-MICROEMULSION SYSTEM OF FERULIC” (priority 2020, published 2022).

Tested on: hypertensive rats
Conditions: 8 weeks of treatment

COc1cc(/C=C/C(=O)O)ccc1O [ferulic acid, Ferulic acid]
blood flow to kidney: improvement | left ventricular stiffness in heart: decrease | systolic blood pressure: significant decrease
